According to US20070275969A1, “NANOPARTICLES FOR ORAL ADMINISTRATION OF PHARMACEUTICAL AGENTS OF LOW SOLUBILITY” (priority 1995, published 2007):

Legend:
[1] = aqueous solubility of the active agent; type: physicochemical; conditions: pH 7.4
Procedure: (§1) Since then several types of HIV-1 protease inhibitors have become known. […] The latter effect is presently attributed to the extremely low aqueous solubility (8 mg/1000 ml at pH 7.4).

[2] = half-life in in-vivo pharmaceutical models (mouse); conditions: some in-vivo pharmaceutical models (mouse)
Procedure: as §1

oral bioavailability = conditions: in vivo
Procedure: as §1

In the case of `COc1ccc(C[C@H](C[C@H](O)[C@H](Cc2ccccc2)NC(=O)OC(C)(C)C)C(=O)N[C@H](C(=O)N[C@@H](Cc2ccccc2)C(=O)N2CCOCC2)C(C)C)cc1` [HIV-1 protease inhibitor (A), 5(S)-tert.-Butoxycarbonyl-amino-4(S)-hydroxy-2(R)-4-methoxyphenylmethyl-6-phenyl-hexanoyl-(L)-Val-(L)-Phe-morpholin-4-ylamide], the aqueous solubility [1] was 8 mg/1000 ml, the half-life [2] was “relatively short half-life” and the oral bioavailability (oral bioavailability) was “insufficient oral bioavailability”.
